Laboratory results reported in patent US10538567B2, “Compounds as peptidic trigonal GLP1/glucagon/GIP receptor agonists” (priority 2016, dated 2020).
Numbered stars: 1 amine (or outer) side, 2 acyl side, 3 side chain; on linkers, the order of the positions; unused ones are H or OH. Square brackets hold non-standard residues; d marks the D form. Side chains are listed from the residue outwards. Peptide text beside a SMILES is read from it. * marks the point of attachment. γGlu = O=C(O)[C@H](CCC(=O)[*:2])N[*:1]; Stearoyl = CCCCCCCCCCCCCCCCCC(=O)*; Aib = CC(C)(N)C(=O)O

Tests used:
[1] = molecular target: T1, human GLP-1 receptor (Homo sapiens, UniProt P43220); test: cAMP response (HTRF) of HEK-293 cells stably expressing human GLP-1 receptor; assay type: cell-based; details: Table 8; read-out: EC50 hGLP-1R
T1 construct: expressed in transfected cells; host or cells: HEK-293
Experimental: (§1) cAMP content of cells was determined using a kit from Cisbio Corp. (cat. no. 62AM4PEJ) based on HTRF (Homogenous Time Resolved Fluorescence). For preparation, cells were split into T175 culture flasks and grown overnight to near confluency in medium (DMEM/10% FBS). Medium was then removed and cells washed with PBS lacking calcium and magnesium, followed by proteinase treatment with accutase (Sigma-Aldrich cat. no. A6964). Detached cells were washed and resuspended in assay buffer (1×HBSS; 20 mM HEPES, 0.1% BSA, 2 mM IBMX) and cellular density determined. They were then diluted to 400000 cells/ml and 25 μl-aliquots dispensed into the wells of 96-well plates. For measurement, 25 μl of test compound in assay buffer was added to the wells, followed by incubation for 30 minutes at room temperature.
(§2) Potencies of peptidic compounds at the GLP-1, glucagon and GIP receptors were determined by exposing cells expressing human glucagon receptor (hGlucagon R), human GIP receptor (hGIP-R) or human GLP-1 receptor (hGLP-1 R) to the listed compounds at increasing concentrations and measuring the formed cAMP as described in Methods.

[2] = molecular target: T2, human glucagon receptor (Homo sapiens, UniProt P47871); test: cAMP response (HTRF) of HEK-293 cells stably expressing human glucagon receptor; assay type: cell-based; details: Table 8; read-out: EC50 hGlucagon R
T2 construct: expressed in transfected cells; host or cells: HEK-293
Experimental: as §1, §2

[3] = molecular target: T3, human GIP receptor (Homo sapiens, UniProt P48546); test: cAMP response (HTRF) of HEK-293 cells stably expressing human GIP receptor; assay type: cell-based; details: Table 8; read-out: EC50 hGIP R
T3 construct: expressed in transfected cells; host or cells: HEK-293
T3 sequence (P48546 22-466): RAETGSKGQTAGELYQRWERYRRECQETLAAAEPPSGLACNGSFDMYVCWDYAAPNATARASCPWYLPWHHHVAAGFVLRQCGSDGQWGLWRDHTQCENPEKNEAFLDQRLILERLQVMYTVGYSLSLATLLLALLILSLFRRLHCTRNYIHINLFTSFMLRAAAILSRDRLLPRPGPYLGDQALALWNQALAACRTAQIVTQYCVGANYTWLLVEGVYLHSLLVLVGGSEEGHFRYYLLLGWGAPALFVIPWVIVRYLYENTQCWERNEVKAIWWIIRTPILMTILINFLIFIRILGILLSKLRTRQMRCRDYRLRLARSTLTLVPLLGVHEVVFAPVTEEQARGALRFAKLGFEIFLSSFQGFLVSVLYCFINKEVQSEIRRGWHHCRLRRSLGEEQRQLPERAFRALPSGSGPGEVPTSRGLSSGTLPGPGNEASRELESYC
Experimental: Agonism of compounds for the receptors was determined by functional assays measuring cAMP response of HEK-293 cell lines stably expressing human GLP-1, GIP or glucagon receptor.
as §1, with “temperature. After addition of HTRF reagents diluted in lysis buffer (kit components), the plates were incubated for 1 hr, followed by measurement of the fluorescence ratio at 665/616 nm. In vitro potency of agonists was quantified by determining the concentrations that caused 50% activation of maximal response (EC50).” for “temperature.”
as §2

[4] = Thioflavin T (ThT) assay for physical stability (fibrillation); assay type: physicochemical; details: 3 mg/ml, 100 mM acetate pH 4.5 with m-cresol, 37° C. shaking
How it was run: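 Peptides at 3 mg/ml final with 100 μM ThT final in 100 mM acetate pH 4.5 containing 2.7 mg/mL m-cresol, eight replicates. Stressed at 37° C by repeated cycles of 10 s shaking at 960 rpm and 50 s rest. Fluorescence read every 20 minutes; lag time in hours taken from the sigmoidal kinetic curve.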

T2 sequence (P47871 26-477): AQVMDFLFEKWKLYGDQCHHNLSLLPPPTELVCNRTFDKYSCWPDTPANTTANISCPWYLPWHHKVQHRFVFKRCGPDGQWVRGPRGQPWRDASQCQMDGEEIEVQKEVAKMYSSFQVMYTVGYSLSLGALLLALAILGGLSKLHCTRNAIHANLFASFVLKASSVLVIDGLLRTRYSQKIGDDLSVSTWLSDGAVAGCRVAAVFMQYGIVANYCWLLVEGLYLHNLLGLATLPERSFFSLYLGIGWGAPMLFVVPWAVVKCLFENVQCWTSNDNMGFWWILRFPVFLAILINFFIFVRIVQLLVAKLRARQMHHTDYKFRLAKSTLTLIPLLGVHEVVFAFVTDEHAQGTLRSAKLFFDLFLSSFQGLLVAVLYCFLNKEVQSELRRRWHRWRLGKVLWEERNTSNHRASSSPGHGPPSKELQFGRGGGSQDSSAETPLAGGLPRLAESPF
T1 sequence (P43220 24-463): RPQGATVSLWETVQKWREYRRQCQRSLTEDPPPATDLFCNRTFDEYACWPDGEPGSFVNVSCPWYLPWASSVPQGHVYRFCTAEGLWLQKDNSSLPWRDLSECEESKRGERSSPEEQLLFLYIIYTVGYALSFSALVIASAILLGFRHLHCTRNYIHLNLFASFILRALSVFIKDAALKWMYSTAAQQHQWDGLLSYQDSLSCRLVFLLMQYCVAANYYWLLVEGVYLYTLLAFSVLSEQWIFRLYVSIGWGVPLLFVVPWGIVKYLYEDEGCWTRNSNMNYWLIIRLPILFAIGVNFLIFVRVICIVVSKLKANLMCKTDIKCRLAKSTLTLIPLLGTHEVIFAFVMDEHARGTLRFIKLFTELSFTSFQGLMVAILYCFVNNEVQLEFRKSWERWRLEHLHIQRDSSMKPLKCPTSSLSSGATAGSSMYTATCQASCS

CCCCCCCCCCCCCCCCCC(=O)N[C@@H](CCC(=O)NCCCC[C@H](NC(=O)[C@H](CC(C)C)NC(=O)[C@H](CCCCN)NC(=O)[C@H](CO)NC(=O)[C@H](CC(C)C)NC(=O)[C@H](CC(=O)O)NC(=O)[C@H](CO)NC(=O)[C@@H](NC(=O)[C@H](Cc1ccccc1)NC(=O)[C@@H](NC(=O)CNC(=O)[C@H](Cc1c[nH]cn1)NC(=O)C(C)(C)NC(=O)[C@@H](N)Cc1c[nH]cn1)[C@@H](C)O)[C@@H](C)O)C(=O)N[C@@H](CCC(=O)O)C(=O)N[C@@H](CCC(=O)O)C(=O)N[C@@H](CCC(N)=O)C(=O)N[C@@H](CCCNC(=N)N)C(=O)N[C@@H](CCC(N)=O)C(=O)N[C@@H](CCCCN)C(=O)N[C@@H](CCC(=O)O)C(=O)N[C@@H](Cc1ccccc1)C(=O)N[C@H](C(=O)N[C@@H](CCC(=O)O)C(=O)N[C@@H](Cc1c[nH]c2ccccc12)C(=O)N[C@@H](CC(C)C)C(=O)N[C@@H](CCCCN)C(=O)N[C@@H](C)C(=O)NCC(=O)NCC(=O)N1CCC[C@H]1C(=O)N1CCC[C@H]1C(=O)N[C@@H](CO)C(=O)NC(C)(C)C(=O)N[C@@H](CCCCN)C(=O)N1CCC[C@H]1C(=O)N1CCC[C@H]1C(=O)N1CCC[C@H]1C(=O)N[C@@H](CCCCN)C(N)=O)[C@@H](C)CC)C(=O)O [SEQ ID NO: 21, H-Aib-H-G-T-F-T-S-D-L-S-K-L-K[gGlu-Stea]-E-E-Q-R-Q-K-E-F-I-E-W-L-K-A-G-G-P-P-S-Aib-K-P-P-P-K-NH2] (H-H[Aib]HGTFTSDLSKLK([γGlu-Stearoyl])EEQRQKEFIEWLKAGGPPS[Aib]KPPPK-NH2)
EC50 [1]: 3.4 pM
EC50 [2]: 1.9 pM
EC50 [3]: 2.6 pM
Lag time before increase [4]: >45 h
